The values below come from ChEMBL document CHEMBL3882726, “Pyrimidine Derivatives As Kinase Modulators and Method of Use” (2008).

In general, IC50 refers to the concentration at which inhibition is half-maximal. Read a high IC50 as a need for much substance.

The assay concerns the target Insulin-like growth factor 1 receptor (Homo sapiens, UniProt P08069). The assay is described as follows: Inhibition of human IGF1R kinase domain (M954 to C1367 residues) tri-phosphorylated enzyme form expressed in baculovirus based expression system using poly-EY peptide incubated for 2 hrs by luciferase-luciferin coupled chemiluminescent assay.

Insulin-like growth factor 1 receptor, sequence (P08069 31-736 limits assumed): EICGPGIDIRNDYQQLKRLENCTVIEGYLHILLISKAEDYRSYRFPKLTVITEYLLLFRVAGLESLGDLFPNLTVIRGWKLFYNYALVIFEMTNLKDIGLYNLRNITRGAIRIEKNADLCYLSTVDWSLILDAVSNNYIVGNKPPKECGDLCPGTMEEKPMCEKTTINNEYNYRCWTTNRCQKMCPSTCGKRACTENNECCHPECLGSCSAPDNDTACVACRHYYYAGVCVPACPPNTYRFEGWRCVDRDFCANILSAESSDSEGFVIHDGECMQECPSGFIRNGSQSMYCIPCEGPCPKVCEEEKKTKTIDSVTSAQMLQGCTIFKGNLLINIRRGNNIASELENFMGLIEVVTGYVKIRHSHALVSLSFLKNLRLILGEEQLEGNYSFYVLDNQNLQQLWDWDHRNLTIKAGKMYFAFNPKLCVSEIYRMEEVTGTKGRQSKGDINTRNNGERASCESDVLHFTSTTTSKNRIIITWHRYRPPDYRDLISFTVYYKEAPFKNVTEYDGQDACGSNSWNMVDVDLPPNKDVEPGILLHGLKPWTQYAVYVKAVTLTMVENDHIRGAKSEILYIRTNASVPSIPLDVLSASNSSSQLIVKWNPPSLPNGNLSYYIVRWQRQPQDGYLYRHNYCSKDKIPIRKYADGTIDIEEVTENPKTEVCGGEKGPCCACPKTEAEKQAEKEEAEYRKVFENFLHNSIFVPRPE
Insulin-like growth factor 1 receptor, sequence (P08069 741-1367 limits assumed): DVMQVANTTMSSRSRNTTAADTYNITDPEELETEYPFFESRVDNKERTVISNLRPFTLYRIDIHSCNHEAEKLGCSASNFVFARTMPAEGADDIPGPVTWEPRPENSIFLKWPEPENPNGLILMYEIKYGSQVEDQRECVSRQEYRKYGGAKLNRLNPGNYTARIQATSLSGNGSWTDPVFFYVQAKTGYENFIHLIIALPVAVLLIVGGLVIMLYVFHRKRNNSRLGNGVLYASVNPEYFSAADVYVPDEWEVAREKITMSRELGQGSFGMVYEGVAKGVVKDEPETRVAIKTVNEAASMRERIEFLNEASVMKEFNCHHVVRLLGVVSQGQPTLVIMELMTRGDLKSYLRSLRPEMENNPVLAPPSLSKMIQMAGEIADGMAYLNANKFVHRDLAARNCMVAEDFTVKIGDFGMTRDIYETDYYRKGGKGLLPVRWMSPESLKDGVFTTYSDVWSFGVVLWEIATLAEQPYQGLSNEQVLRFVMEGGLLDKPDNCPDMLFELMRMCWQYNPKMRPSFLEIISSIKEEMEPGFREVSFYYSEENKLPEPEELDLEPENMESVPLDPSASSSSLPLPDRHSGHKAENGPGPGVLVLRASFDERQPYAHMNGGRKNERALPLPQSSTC

`COc1cc(Nc2nc(C)cc(Nc3cc(C4CC4)n[nH]3)n2)cc([N+](=O)[O-])c1`: the IC50 was not below 5 µM.
